# Source: patent US20250297220A1, “IMMUNE-ACTIVATING COMPLEXES” (Dynamic Cell Therapies, Inc., priority 2022, published 2025)
# Legend:
# [1] = Molar absorptivities at 280 nm and 493 nm; format: physicochemical
# Experimental: UV-vis absorption profiles were obtained for compound 7-functionalized antibodies, unfunctionalized antibodies, and free compound 7. FIG. 47 provides the results of these analyses. Molar absorptivities (8) were determined for the anti-BCMA antibody at 280 nm (primarily corresponding tyrosine and tryptophan absorbances from the anti-BCMA antibody) and at 493 nm for maleimide fluorescein and 5 (6)-carboxy fluorescein (primarily corresponding to the HOMO to LUMO transition within the fluorescein x-system), and are summarized in Table 18. As the unfunctionalized antibody minimally absorbed around 493 nm, absorbance in this region is quantitative for fluorescein concentration.
# [2] = system: engineered cytokine receptor switches (fluorescein-binding receptor domains, IL-7 receptor-a intracellular signaling domains); assay: T-cell activation, transduction, expansion and differentiation; memory phenotype quantification; format: cell-based; details: after 5 days in multi-well plates; non-fluorescein contacted cells about 30%
# Source text: This example covers activation, differentiation, and expansion of immune cells with engineered cytokine receptor switches. The engineered cytokine receptor switches included fluorescein-binding receptor domains and IL-7 receptor-a intracellular signaling domains. The cells were activated with CD3 and CD28 antibody-coated beads, followed by small molecule activators for the engineered cytokine switches to promote differentiation to memory phenotypes. The proportion of stem-cell memory, central memory, and effector memory cells were measured following differentiation.
# Activation, transfection, expansion, and differentiation were performed according to the timeline in FIG. 28A. The cells were maintained in media with 20 units/ml IL2 throughout the incubation. The cells were first contacted with CD3/CD28 activating beads at a ratio of 1:1 (cells to beads). Following three days of activation and expansion, the cells were transfected with a gamma retroviral vector encoding the engineered cytokine receptor switch with fluorescein binding affinity and mCherry for fluorescence detection. The cells were then transferred to a multi-well plate. […]
# Following 5 total days of incubation in the multi-well plates, the cells were analyzed for (1) stem-cell memory, (2) central memory, (3) effector memory, and (4) terminally differentiated effector memory re-expressing CD45RA phenotype. […]
ε280 nm ([1]; molar absorptivity at 280 nm) [M⁻¹ cm⁻¹],ε493nm ([1]; molar absorptivity at 493 nm) [M⁻¹ cm⁻¹],SMILES,proportion of central memory cells [2]
7968,43908,O=C1OC2(c3ccc(O)cc3Oc3cc(O)ccc32)c2ccc(N3C(=O)C=CC3=O)cc21 [Fluorescein-Maleimide],–
–,–,O=C1OC2(c3ccc(O)cc3Oc3cc(O)ccc32)c2ccccc21 [fluorescein],about 50%
